The numbers were not newly measured in patent US20060051406A1, “Formulation of insoluble small molecule therapeutics in lipid-based carriers” (priority 2004, published 2006), which cites them from elsewhere.

Each structure is given as a SMILES string.

The conditions of the data set: lipid transition temperature (gel to liquid crystalline phase).

As for `CCCCCCCC/C=C\CCCCCCCC(=O)OC[C@H](COP(=O)([O-])OCC[N+](C)(C)C)OC(=O)CCCCCCC/C=C\CCCCCCCC` [Dioleoylphosphatidylcholine, 1,2-dioleoyl-sn-glycero-3-phosphocholine], the Tm was −22 °C.

With `CCCCCCCCCCCCCC(=O)OC[C@H](COP(=O)([O-])OCC[N+](C)(C)C)OC(=O)CCCCCCCCCCCCC` [Dimyristoylphosphatidylcholine], the Tm is 23 °C.

`CCCCCCCCCCCCCCCC(=O)OC[C@H](COP(=O)([O-])OCC[N+](C)(C)C)OC(=O)CCCCCCCCCCCCCCC` [Dipalmitoylphosphatidylcholine]: the Tm was 41 °C.

Turning to `CCCCCCCCCCCCCCCCCC(=O)OC[C@H](COP(=O)([O-])OCC[N+](C)(C)C)OC(=O)CCCCCCCCCCCCCCCCC` [Distearoylphosphatidylcholine], the Tm was 55 °C.
